The values below come from the supplement of paper PMC11208160.

A short description of the data set: recombinant UMI read abundance after kanamycin selection (control-corrected) (log10(CPM+1)); higher = more efficient recombination; extreme values may be limits of the assay; sequences stand for … in AGTGCAGAGAAAATCGGCCAGTTTTCTCTGCCTGCAGTCCGCATGCCGTGGGACCCCTTGGGTTCTAACCTGTTGCCTAGATTTATGCAGCGGACTGCCTTTCTCCCAAAGTGATAAACCGG…AGGTTGGTTTCACT; site = the 11-nt donor. The method in brief: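 Each donor and donor-binding-loop pair was tracked by a 12-nt UMI on a plasmid carrying a promoterless kanamycin gene. With a second plasmid supplying a fixed target and T7-inducible IS621 bridge recombinase, the pool was plated in Escherichia coli on IPTG (0.07 mM) plus kanamycin or unselected. Sequencing of recombinant UMIs across the donor–target junction gave counts expressed as log10(CPM+1) after replicate averaging and control-derived scaling.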
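Further: IS621 bridge recombinase in Escherichia coli cells against a fixed T5 target plasmid.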

As for “CCATACTCATGGACCGGTTTTCCCGGTAATCCGTATTTGCA (site CCATACTCTTG)”, the “recombinant UMI read abundance (log10)” value turned out to be 2.11. “CCATACTCATGGACCGGTTTTCCCGGTAATCCGTATTTGCA (site GCATACTCTTG)”: the “recombinant UMI read abundance (log10)” value turned out to be 0.

Consider “CCATACTCATGGACCGGTTTTCCCGGTAATCCGTATTTGCA (site TCATACTCTTG)”, for which the “recombinant UMI read abundance (log10)” value was 0.

Consider “CCATACTCATGGACCGGTTTTCCCGGTAATCCGTATTTGGC (site CCATACTCTGC)”, for which the “recombinant UMI read abundance (log10)” value amounted to 0.585.

“CCATAGCCATGGACCGGTTTTCCCGGTAATCCGTATTTGCC (site CCATAGCCTGG)”: the “recombinant UMI read abundance (log10)” value came out at 0.

Take “CCATAGCCATGGACCGGTTTTCCCGGTAATCCGTATTTGCC (site CCCTAGCCTGG)”: the “recombinant UMI read abundance (log10)” value was found to be 0. Next, “CCATAGCCATGGACCGGTTTTCCCGGTAATCCGTATTTGCC (site CCGTAGCCTGG)”: 0; “CCATAGCCATGGACCGGTTTTCCCGGTAATCCGTATTTGCC (site CCTTAGCCTGG)”: 0.

Take “CCATAGTCATGGACCGGTTTTCCCGGTAATCCGTATTTGAA (site CCATAGTCTTT)”: the “recombinant UMI read abundance (log10)” value worked out at 1.86. As for “CCATATGCATGGACCGGTTTTCCCGGTAATCCGTATTTGCA (site CCATATGCTTG)”, the “recombinant UMI read abundance (log10)” value was 0.198. On to “CCATCCTCATGGACCGGTTTTCCCGGTAATCCGTATTTGGT (site CCATCCTCTAC)”, for which the “recombinant UMI read abundance (log10)” value was determined as 1.38. In the case of “CCATCTACATGGACCGGTTTTCCCGGTAATCCGTATTTGTG (site ACATCTACTCA)”, the “recombinant UMI read abundance (log10)” value stood at 0.0369. Regarding “CCATCTACATGGACCGGTTTTCCCGGTAATCCGTATTTGTG (site CCATCTACTCA)”, the “recombinant UMI read abundance (log10)” value was found to be 0.0215. “CCATCTACATGGACCGGTTTTCCCGGTAATCCGTATTTGTG (site GCATCTACTCA)”: the “recombinant UMI read abundance (log10)” value amounted to 0.00588. Consider “CCATCTACATGGACCGGTTTTCCCGGTAATCCGTATTTGTG (site TCATCTACTCA)”, for which the “recombinant UMI read abundance (log10)” value was 0. In the case of “CCATCTGCATGGACCGGTTTTCCCGGTAATCCGTATTTGAA (site CCATCTGCTTT)”, the “recombinant UMI read abundance (log10)” value is 1.91. Regarding “CCATGGGCATGGACCGGTTTTCCCGGTAATCCGTATTTGAG (site CCATGGGCTCT)”, the “recombinant UMI read abundance (log10)” value amounted to 0.633. In the case of “CCATGGTCATGGACCGGTTTTCCCGGTAATCCGTATTTGAA (site CCATGGTCTTT)”, the “recombinant UMI read abundance (log10)” value was determined as 0.724. As to “CCATGTGCATGGACCGGTTTTCCCGGTAATCCGTATTTGAA (site CCATGTGCTTT)”, the “recombinant UMI read abundance (log10)” value amounted to 0.336. Next, “CCCACCCCATGGACCGGTTTTCCCGGTAATCCGTATTTGGC (site CCCACCCCTGC)”: 0. Turning to “CCCACTACATGGACCGGTTTTCCCGGTAATCCGTATTTGTT (site CCCACTACTAA)”, the “recombinant UMI read abundance (log10)” value was 0.141. For “CCCAGTCCATGGACCGGTTTTCCCGGTAATCCGTATTTGCA (site CCCAGTCCTTG)”, the “recombinant UMI read abundance (log10)” value was 0. “CCCAGTCCATGGACCGGTTTTCCCGGTAATCCGTATTTGCA (site CCCCGTCCTTG)”: the “recombinant UMI read abundance (log10)” value turned out to be 0.

“CCCAGTCCATGGACCGGTTTTCCCGGTAATCCGTATTTGCA (site CCCGGTCCTTG)”: the “recombinant UMI read abundance (log10)” value came out at 0.00873. Under “CCCAGTCCATGGACCGGTTTTCCCGGTAATCCGTATTTGCA (site CCCTGTCCTTG)” stands 0.0169. For “CCCATATCATGGACCGGTTTTCCCGGTAATCCGTATTTGAT (site CCCATATCTAT)”, the “recombinant UMI read abundance (log10)” value is 0. Regarding “CCCATATCATGGACCGGTTTTCCCGGTAATCCGTATTTGTA (site CCCATATCTAA)”, the “recombinant UMI read abundance (log10)” value amounted to 0.0053.

With “CCCATATCATGGACCGGTTTTCCCGGTAATCCGTATTTGTA (site CCCATATCTCA)”, the “recombinant UMI read abundance (log10)” value stood at 0.0171. Under “CCCATATCATGGACCGGTTTTCCCGGTAATCCGTATTTGTA (site CCCATATCTGA)” stands 0; under “CCCATATCATGGACCGGTTTTCCCGGTAATCCGTATTTGTA (site CCCATATCTTA)”, 0.903. For the sequence “CCCATATCATGGACCGGTTTTCCCGGTAATCCGTATTTGTC (site ACCATATCTGA)”, the “recombinant UMI read abundance (log10)” value is 0. Next, “CCCATATCATGGACCGGTTTTCCCGGTAATCCGTATTTGTC (site CACATATCTGA)”: 0; “CCCATATCATGGACCGGTTTTCCCGGTAATCCGTATTTGTC (site CCAATATCTGA)”: 0. Next, “CCCATATCATGGACCGGTTTTCCCGGTAATCCGTATTTGTC (site CCCAAATCTGA)”: 0. For “CCCATATCATGGACCGGTTTTCCCGGTAATCCGTATTTGTC (site CCCACATCTGA)”, the “recombinant UMI read abundance (log10)” value stood at 0. Next, “CCCATATCATGGACCGGTTTTCCCGGTAATCCGTATTTGTC (site CCCAGATCTGA)”: 0. Take “CCCATATCATGGACCGGTTTTCCCGGTAATCCGTATTTGTC (site CCCATAACTGA)”: the “recombinant UMI read abundance (log10)” value stood at 0. For the sequence “CCCATATCATGGACCGGTTTTCCCGGTAATCCGTATTTGTC (site CCCATACCTGA)”, the “recombinant UMI read abundance (log10)” value came out at 0.34. For “CCCATATCATGGACCGGTTTTCCCGGTAATCCGTATTTGTC (site CCCATAGCTGA)”, the “recombinant UMI read abundance (log10)” value amounted to 0. Regarding “CCCATATCATGGACCGGTTTTCCCGGTAATCCGTATTTGTC (site CCCATATCTAA)”, the “recombinant UMI read abundance (log10)” value came out at 0.00469. As to “CCCATATCATGGACCGGTTTTCCCGGTAATCCGTATTTGTC (site CCCATATCTCA)”, the “recombinant UMI read abundance (log10)” value came to 0. Take “CCCATATCATGGACCGGTTTTCCCGGTAATCCGTATTTGTC (site CCCATATCTGA)”: the “recombinant UMI read abundance (log10)” value worked out at 0.747.

In the case of “CCCATATCATGGACCGGTTTTCCCGGTAATCCGTATTTGTC (site CCCATATCTGC)”, the “recombinant UMI read abundance (log10)” value was 0. For “CCCATATCATGGACCGGTTTTCCCGGTAATCCGTATTTGTC (site CCCATATCTGG)”, the “recombinant UMI read abundance (log10)” value was 0. For “CCCATATCATGGACCGGTTTTCCCGGTAATCCGTATTTGTC (site CCCATATCTGT)”, the “recombinant UMI read abundance (log10)” value was determined as 0.

Regarding “CCCATATCATGGACCGGTTTTCCCGGTAATCCGTATTTGTC (site CCCATATCTTA)”, the “recombinant UMI read abundance (log10)” value stood at 0. Under “CCCATATCATGGACCGGTTTTCCCGGTAATCCGTATTTGTC (site CCCATCTCTGA)” stands 0.

On to “CCCATATCATGGACCGGTTTTCCCGGTAATCCGTATTTGTC (site CCCATGTCTGA)”, for which the “recombinant UMI read abundance (log10)” value was 0.

Turning to “CCCATATCATGGACCGGTTTTCCCGGTAATCCGTATTTGTC (site CCCATTTCTGA)”, the “recombinant UMI read abundance (log10)” value is 0.731. For the sequence “CCCATATCATGGACCGGTTTTCCCGGTAATCCGTATTTGTC (site CCCCTATCTGA)”, the “recombinant UMI read abundance (log10)” value is 0.

For “CCCATATCATGGACCGGTTTTCCCGGTAATCCGTATTTGTC (site CCCGTATCTGA)”, the “recombinant UMI read abundance (log10)” value worked out at 0. Under “CCCATATCATGGACCGGTTTTCCCGGTAATCCGTATTTGTC (site CCCTTATCTGA)” stands 0.395; under “CCCATATCATGGACCGGTTTTCCCGGTAATCCGTATTTGTC (site CCGATATCTGA)”, 0. With “CCCATATCATGGACCGGTTTTCCCGGTAATCCGTATTTGTC (site CCTATATCTGA)”, the “recombinant UMI read abundance (log10)” value is 0. For “CCCATATCATGGACCGGTTTTCCCGGTAATCCGTATTTGTC (site CGCATATCTGA)”, the “recombinant UMI read abundance (log10)” value was 0. For the sequence “CCCATATCATGGACCGGTTTTCCCGGTAATCCGTATTTGTC (site CTCATATCTGA)”, the “recombinant UMI read abundance (log10)” value was 0. Take “CCCATATCATGGACCGGTTTTCCCGGTAATCCGTATTTGTC (site GCCATATCTGA)”: the “recombinant UMI read abundance (log10)” value is 0. As to “CCCATATCATGGACCGGTTTTCCCGGTAATCCGTATTTGTC (site TCCATATCTGA)”, the “recombinant UMI read abundance (log10)” value came out at 0.

Regarding “CCCCAAACATGGACCGGTTTTCCCGGTAATCCGTATTTGTA (site CCCCAAACTTA)”, the “recombinant UMI read abundance (log10)” value amounted to 0.19. Regarding “CCCCAAACATGGACCGGTTTTCCCGGTAATCCGTATTTGTA (site CCCCACACTTA)”, the “recombinant UMI read abundance (log10)” value was determined as 0.0105. As to “CCCCAAACATGGACCGGTTTTCCCGGTAATCCGTATTTGTA (site CCCCAGACTTA)”, the “recombinant UMI read abundance (log10)” value was determined as 0.00667. “CCCCAAACATGGACCGGTTTTCCCGGTAATCCGTATTTGTA (site CCCCATACTTA)”: the “recombinant UMI read abundance (log10)” value stood at 0.102. As to “CCCCACCCATGGACCGGTTTTCCCGGTAATCCGTATTTGTA (site CCCCACACTTA)”, the “recombinant UMI read abundance (log10)” value was found to be 0.0263.

Regarding “CCCCACCCATGGACCGGTTTTCCCGGTAATCCGTATTTGTA (site CCCCACCCTTA)”, the “recombinant UMI read abundance (log10)” value was 0.00842. As for “CCCCACCCATGGACCGGTTTTCCCGGTAATCCGTATTTGTA (site CCCCACGCTTA)”, the “recombinant UMI read abundance (log10)” value was 0.0484. As to “CCCCACCCATGGACCGGTTTTCCCGGTAATCCGTATTTGTA (site CCCCACTCTTA)”, the “recombinant UMI read abundance (log10)” value was found to be 1.78.

Turning to “CCCCACTCATGGACCGGTTTTCCCGGTAATCCGTATTTGAC (site CCCCACTCTGT)”, the “recombinant UMI read abundance (log10)” value amounted to 1.04. Under “CCCCATACATGGACCGGTTTTCCCGGTAATCCGTATTTGTA (site CCCCAAACTTA)” stands 0.
